Laboratory results taken from patent publication US9109001B2, “3′,5′-cyclic phosphoramidate prodrugs for HCV infection” (priority 2012, dated 2015).
Read-outs that look alike come from different tables or passages of the source.

Experiments:
HCV genotype 1b replicon = test: HCV Replicon Assay; assay type: cell-based; details: Zluc (Huh-7-derived) cells, HCV genotype 1b replicon, luciferase reporter, 72 hours, read-out: HCV Replicon EC50
Procedure: Huh-7-derived cell line (Zluc) that harbors an HCV genotype 1b replicon and a luciferase reporter gene was grown in Dulbecco's Modified Eagle Medium (DMEM) supplemented with 10% fetal bovine serum, 2 mM GlutaMAX, 1% MEM nonessential amino acids, 100 IU/mL penicillin, 100 μg/mL streptomycin, and 0.5 mg/mL Geneticin® (G418). For dose response testing the cells were seeded in 96-well plates at 7.5×10^3 cells per well in a volume of 50 μL, and incubated at 37° C./5% CO2. Drug solutions were made up freshly in Huh-7 media as 2× stocks. Ten additional 5-fold dilutions were prepared from these stocks in DMEM without G418. At least three hours after Zluc cells were seeded, drug treatment was initiated by adding 50 μL of drug dilutions to the plates in duplicate. Final concentrations of drug ranged from 100 μM to […]. Cells were then incubated at 37° C./5% CO2. Alternatively, compounds were tested at two concentrations (1 μM and 10 μM). […] For this, media was removed from the plates via gentle tapping. Fifty microliters of ONE-glo luciferase assay reagent was added to each well. The plates were shaken gently for 3 min at room temperature and luminescence was measured on a Victor^3 V 1420 multilabel counter (Perkin Elmer) with a 1 second read time using a 700 nm cut-off filter. The EC50 values were calculated from dose response curves from the resulting best-fit equations determined by Microsoft Excel and XLfit 4.1 software. When screening at two fixed concentrations, the results were expressed as % inhibition at 1 μM and 10 μM.

fresh human hepatocytes = test: Release of active metabolite in fresh human hepatocytes; assay type: in vitro ADME; details: 10 μM
Procedure: Assay for the Release of Active Metabolite in Primary Hepatocytes: Plates of fresh human and mouse hepatocytes were obtained on ice. The medium was removed and replaced with hepatocyte culture medium (William's E supplemented with penicillin-streptomycin, 1% L-glutamine, 1% insulin-transferrin-selenium and 0.1 μM Dexamethasone (Invitrogen) or with Invitro GRO HI medium complemented with Torpedo antibiotics (Celsis)). Cells were left overnight in an incubator at 37° C. to acclimatize to culture and the medium.
Hepatocyte incubations were conducted at a final volume of 0.5 mL hepatocyte culture medium/well (0.8 million cells/well for human and 0.5 million cells/well for mouse; 12 well plate no overlay, collagen coat). Culture medium from overnight incubation of cells was removed and replaced with fresh medium, pre-warmed to 37° C., containing 10 μM of test compound from a stock solution in DMSO (final DMSO concentration was 0.1%). At each specific time point, incubation medium was removed and cell monolayers were carefully washed two times with ice-cold PBS. Following the last wash, all PBS was carefully removed and 1.0 mL of extraction solution (ice-cold 70% methanol/30% water) added. Cells were scraped off and suspended in the extraction solution, transferred to 2 mL polypropylene microfuge tubes and intracellular contents extracted overnight at −20° C.
After the overnight treatment the cellular extracts were prepared by centrifugation at 16,000×g for 10 min to remove cellular debris. The remaining sample was then dried using a refrigerated centrivap concentrator. Dry extracts were reconstituted in 1000 μL of HPLC-grade water and centrifuged at 16,000×g for 10 min. Aliquots (100 μL each) of the supernatant were transferred into a 96 well plate and internal standard (4 ng/mL final concentration) was added as the internal standard (IS) for LC-MS/MS analysis.
The incubation time points were 6, 24 and 48 hours for human hepatocytes and 1, 4, 8, 12 and 24 hours for mouse hepatocytes.

[1] = Stability in fresh human whole blood; assay type: in vitro ADME; details: 0.5 μM, percent unchanged test compound
Procedure: (§1) Stability in Fresh Whole Blood: Stability of test compounds were determined in fresh human whole blood with K2EDTA as the anticoagulant (stored refrigerated at 2-8° C. and used within 7 days of receipt). The experiment was conducted with three replicates for each time point. Whole blood, pre-incubated at 37° C. for 10-15 minutes, was fortified with a solution of test compound for a final concentration of 0.5 μM and mixed for 30 sec. At intervals (0, 0.5, 1 and 2 hr), three 50-μL aliquots were combined with 200 μL (each) of an ice-cold solution of the internal standard (carbutamide 500 ng/mL in acetonitrile). The samples were vortexed for 30 sec and then centrifuged at 16,100 g for 5 min. The supernatant was analyzed by LC-MS/MS. The MS peak area ratio of the test compound versus the internal standard was calculated and percent unchanged test compound was calculated for each time point using this ratio.

Stability in mouse blood = assay type: in vitro ADME; details: on ice, percent unchanged test compound
Procedure: as §1
The stability in mouse blood was determined on ice at 0, 0.5 and 1 hr as above.

[2] = Stability in human liver microsomes; assay type: in vitro ADME; details: 10 μM, 1.0 mg/mL protein, NADPH, 60 min; percent unchanged
Procedure: Stability in Liver and Intestinal Subcellular Fractions: Stability of test compounds were determined in subcellular fractions (microsomes and S9) of human liver and intestine in duplicate for each matrix. Pooled liver and intestinal microsomal, intestinal and liver S9 proteins (1.0 mg/mL), suspended in incubation buffer (100 mM potassium phosphate, pH 7.4, 5 mM MgCl2, and 0.1 mM EDTA), were preincubated for 5 min at 37° C. with 10 μM of a test compound from a 10 mM stock solution in DMSO (final DMSO concentration was 0.1%); the reaction was initiated by the addition of NADPH (3 mM final concentration). At specific times (0 and 60 min), 0.1 mL samples were taken and the reaction terminated by the addition of 4 volumes of stop solution (acetonitrile with 500 ng/mL carbutamide as an internal standard). The samples were vortexed for 30 sec and then centrifuged at 16,000 g for 10 min. 100 μL of supernatants were transferred to 96 deep-well plates preloaded with 100 μL distilled water and analyzed after mixing by LC-MS/MS. The MS peak area ratio of the test compound versus the internal standard was calculated and percent unchanged test compound over 60 minutes was calculated using this ratio.

[3] = Cytotoxicity evaluation (CellTiter-Blue Cell Viability Assay); assay type: cell-based, human; details: human, Zluc cells, read-out: HCV Replicon CC50
[4] = Stability in simulated intestinal fluid; assay type: in vitro ADME; details: 100 μM, 2 hours at 37° C.; percent of peak area at time zero
Procedure: Stability in Simulated Gastric and Intestinal Fluids: Simulated gastric and intestinal fluids containing pepsin and pancreatin respectively were prepared according to the U.S. Pharmacopoeia USP291 procedure (www.pharmacopeia.cn/v29240/usp29nf24s0_ris1s126.html). Test compound (final concentration 100 μM) was incubated in duplicate in the appropriate fluid for 2 hours at 37° C. The samples were quenched with 200 μl cold acetonitrile, vortexed for 30 seconds and then centrifuged at 16,100 g for 10 min. The supernatants were analyzed by HPLC on a C-18 column with UV detection at 252 nm. The time 0 samples were prepared by adding SGF or SIF fluid to the quenching solvent followed by the test compound. Stability of the compound was determined by peak area the test compound after incubation and calculated as percent of the peak area observed at time zero.

Zluc cells = test: Cytotoxicity evaluation (CellTiter-Blue Cell Viability Assay); assay type: cell-based, human; details: read-out: HCV Replicon CC50

CCOc1nc(N)nc2c1ncn2[C@@H]1O[C@@H]2COP(=O)(NCCC(=O)OC(C)C)O[C@H]2[C@@]1(C)F (single isomer, unassigned) [Compound 2 Diastereomer 1]
EC50 (HCV genotype 1b replicon; Hepatitis C virus, 72 h): 250 to 1000 nM
FHH TP AUC (pmol · hr/mill cells) (fresh human hepatocytes): BLD^a
Stability WB_Human (37° C.; 2 hr) [1]: 98%
Stability WB_Mouse (ice; 1 hr) (Stability in mouse blood): 15%
Stability HLM (1 hr) [2]: 6.7%
CC50 [3]: > 50000 nM
Stability SIF [4]: 98%

CCOc1nc(N)nc2c1ncn2[C@@H]1O[C@@H]2COP(=O)(N[C@@H](C)COC(=O)C(C)C)O[C@H]2[C@@]1(C)F (single isomer, unassigned) [Compound 3 Diastereomer 2]
EC50 (HCV genotype 1b replicon; Hepatitis C virus, 72 h): < 250 nM
FHH TP AUC (pmol · hr/mill cells) (fresh human hepatocytes): 1426 pmol · hr/mill cells
Stability WB_Human (37° C.; 2 hr) [1]: 1%
Stability WB_Mouse (ice; 1 hr) (Stability in mouse blood): 20%
Stability HLM (1 hr) [2]: 0.3%
CC50 [3]: > 50000 nM
Stability SIF [4]: 39%

CCOc1nc(N)nc2c1ncn2[C@@H]1O[C@@H]2COP(=O)(N[C@@H](C)C(=O)OCC(C)C)O[C@H]2[C@@]1(C)F (single isomer, unassigned) [Compound 4 Diastereomer 1]
EC50 (HCV genotype 1b replicon; Hepatitis C virus, 72 h): < 250 nM
FHH TP AUC (pmol · hr/mill cells) (fresh human hepatocytes): 1759 pmol · hr/mill cells
Stability WB_Human (37° C.; 2 hr) [1]: 77%
Stability WB_Mouse (ice; 1 hr) (Stability in mouse blood): 1%
CC50 [3]: > 50000 nM
Stability SIF [4]: 42%

CCOc1nc(N)nc2c1ncn2[C@@H]1O[C@@H]2COP(=O)(N[C@@H](C)C(=O)OCC(C)C)O[C@H]2[C@@]1(C)F (single isomer, unassigned) [Compound 4 Diastereomer 2]
EC50 (HCV genotype 1b replicon): < 250 nM
FHH TP AUC (pmol · hr/mill cells) (fresh human hepatocytes): 1575 pmol · hr/mill cells
Stability WB_Human (37° C.; 2 hr) [1]: 1%
CC50 (Zluc cells): > 50000 nM
Stability SIF [4]: BLD^a

CCOc1nc(N)nc2c1ncn2[C@@H]1O[C@@H]2COP(=O)(N[C@@H](C)C(=O)OC(C)C)O[C@H]2[C@@]1(C)O (single isomer, unassigned) [Compound 5 Diastereomer 1]
EC50 (HCV genotype 1b replicon): 250 to 1000 nM
FHH TP AUC (pmol · hr/mill cells) (fresh human hepatocytes): 3615 pmol · hr/mill cells
Stability WB_Human (37° C.; 2 hr) [1]: 87%
CC50 [3]: > 50000 nM
Stability SIF [4]: 5%

CCOc1nc(N)nc2c1ncn2[C@@H]1O[C@@H]2COP(=O)(N[C@@H](C)C(=O)OC(C)C)O[C@H]2[C@@]1(C)O (single isomer, unassigned) [Compound 5 Diastereomer 2]
EC50 (HCV genotype 1b replicon): 1000 to 10000 nM
FHH TP AUC (pmol · hr/mill cells) (fresh human hepatocytes): 2108 pmol · hr/mill cells
Stability WB_Human (37° C.; 2 hr) [1]: 83%
CC50 (Zluc cells): > 50000 nM
Stability SIF [4]: 77%

CCOC(=O)C(C)(C)NP1(=O)OC[C@H]2O[C@@H](n3cnc4c(OCC)nc(N)nc43)[C@](C)(F)[C@@H]2O1 (single isomer, unassigned) [Compound 7 Diastereomer 1]
EC50 (HCV genotype 1b replicon; Hepatitis C virus, 72 h): 250 to 1000 nM
FHH TP AUC (pmol · hr/mill cells) (fresh human hepatocytes): 1148 pmol · hr/mill cells
Stability WB_Human (37° C.; 2 hr) [1]: 96%
CC50 [3]: > 50000 nM
Stability SIF [4]: 91%

CCOC(=O)C(C)(C)NP1(=O)OC[C@H]2O[C@@H](n3cnc4c(OCC)nc(N)nc43)[C@](C)(F)[C@@H]2O1 (single isomer, unassigned) [Compound 7 Diastereomer 2]
EC50 (HCV genotype 1b replicon): < 250 nM
FHH TP AUC (pmol · hr/mill cells) (fresh human hepatocytes): 830 pmol · hr/mill cells
Stability WB_Human (37° C.; 2 hr) [1]: 36%
CC50 (Zluc cells): > 50000 nM
Stability SIF [4]: 102%

CCOc1nc(N)nc2c1ncn2[C@@H]1O[C@@H]2COP(=O)(N[C@@H](CC)COC(=O)C(C)C)O[C@H]2[C@@]1(C)F (single isomer, unassigned) [Compound 8 Diastereomer 1]
EC50 (HCV genotype 1b replicon; Hepatitis C virus, 72 h): < 250 nM
FHH TP AUC (pmol · hr/mill cells) (fresh human hepatocytes): 308 pmol · hr/mill cells
Stability WB_Human (37° C.; 2 hr) [1]: 18%
CC50 [3]: > 50000 nM
Stability SIF [4]: 15%

CCOc1nc(N)nc2c1ncn2[C@@H]1O[C@@H]2COP(=O)(N[C@@H](CC)COC(=O)C(C)C)O[C@H]2[C@@]1(C)F (single isomer, unassigned) [Compound 8 Diastereomer 2]
EC50 (HCV genotype 1b replicon): < 250 nM
FHH TP AUC (pmol · hr/mill cells) (fresh human hepatocytes): 359 pmol · hr/mill cells
Stability WB_Human (37° C.; 2 hr) [1]: 1%
CC50 (Zluc cells): > 50000 nM
Stability SIF [4]: 69%

CCOc1nc(N)nc2c1ncn2[C@@H]1O[C@@H]2COP(=O)(N[C@@H](C)C(=O)OC3CCCC3)O[C@H]2[C@@]1(C)F (single isomer, unassigned) [Compound 10 Diastereomer 1]
EC50 (HCV genotype 1b replicon; Hepatitis C virus, 72 h): < 250 nM
FHH TP AUC (pmol · hr/mill cells) (fresh human hepatocytes): 1944 pmol · hr/mill cells
Stability WB_Human (37° C.; 2 hr) [1]: 5%
CC50 [3]: > 50000 nM
Stability SIF [4]: 2%

CCOc1nc(N)nc2c1ncn2[C@@H]1O[C@@H]2COP(=O)(N[C@@H](C)C(=O)OC3CCCC3)O[C@H]2[C@@]1(C)F (single isomer, unassigned) [Compound 10 Diastereomer 2]
EC50 (HCV genotype 1b replicon): < 250 nM
FHH TP AUC (pmol · hr/mill cells) (fresh human hepatocytes): 2752 pmol · hr/mill cells
Stability WB_Human (37° C.; 2 hr) [1]: 80%
CC50 (Zluc cells): ≤ 50000 nM
Stability SIF [4]: 67%

CCOc1nc(N)nc2c1ncn2[C@@H]1O[C@@H]2COP(=O)(N[C@@H](C)COC(=O)C(C)C)O[C@H]2[C@@]1(C)F (stereo partly shown) [Compound 3]
EC50 (HCV genotype 1b replicon; Hepatitis C virus, 72 h): < 250 nM
CC50 [3]: > 50000 nM
